Experimental data taken from patent US12539292B2, “BRM targeting compounds and associated methods of use” (Arvinas Operations, Inc., priority 2018, dated 2026).

Target: T1, BRM (Homo sapiens, UniProt P51531)
T1 construct: In-Cell Western Screen of BRM Degradation in SW1573 Cells; endogenous in cells; host or cells: SW1573
Assay: In-cell Western screen of BRM degradation in SW1573 cells (Dmax and DC50)
Format: cell-based
Details: BRM degradation, SW1573 cells; for DC50: read-out: DC50; for Dmax: read-out: Dmax (% degraded)
Method in brief: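 BRM levels were read by LI-COR in-cell Western after two-channel (800/680 nm) immunostaining of fixed, Triton-permeabilised SW1573 cells.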

T1 sequence (P51531 whole entry): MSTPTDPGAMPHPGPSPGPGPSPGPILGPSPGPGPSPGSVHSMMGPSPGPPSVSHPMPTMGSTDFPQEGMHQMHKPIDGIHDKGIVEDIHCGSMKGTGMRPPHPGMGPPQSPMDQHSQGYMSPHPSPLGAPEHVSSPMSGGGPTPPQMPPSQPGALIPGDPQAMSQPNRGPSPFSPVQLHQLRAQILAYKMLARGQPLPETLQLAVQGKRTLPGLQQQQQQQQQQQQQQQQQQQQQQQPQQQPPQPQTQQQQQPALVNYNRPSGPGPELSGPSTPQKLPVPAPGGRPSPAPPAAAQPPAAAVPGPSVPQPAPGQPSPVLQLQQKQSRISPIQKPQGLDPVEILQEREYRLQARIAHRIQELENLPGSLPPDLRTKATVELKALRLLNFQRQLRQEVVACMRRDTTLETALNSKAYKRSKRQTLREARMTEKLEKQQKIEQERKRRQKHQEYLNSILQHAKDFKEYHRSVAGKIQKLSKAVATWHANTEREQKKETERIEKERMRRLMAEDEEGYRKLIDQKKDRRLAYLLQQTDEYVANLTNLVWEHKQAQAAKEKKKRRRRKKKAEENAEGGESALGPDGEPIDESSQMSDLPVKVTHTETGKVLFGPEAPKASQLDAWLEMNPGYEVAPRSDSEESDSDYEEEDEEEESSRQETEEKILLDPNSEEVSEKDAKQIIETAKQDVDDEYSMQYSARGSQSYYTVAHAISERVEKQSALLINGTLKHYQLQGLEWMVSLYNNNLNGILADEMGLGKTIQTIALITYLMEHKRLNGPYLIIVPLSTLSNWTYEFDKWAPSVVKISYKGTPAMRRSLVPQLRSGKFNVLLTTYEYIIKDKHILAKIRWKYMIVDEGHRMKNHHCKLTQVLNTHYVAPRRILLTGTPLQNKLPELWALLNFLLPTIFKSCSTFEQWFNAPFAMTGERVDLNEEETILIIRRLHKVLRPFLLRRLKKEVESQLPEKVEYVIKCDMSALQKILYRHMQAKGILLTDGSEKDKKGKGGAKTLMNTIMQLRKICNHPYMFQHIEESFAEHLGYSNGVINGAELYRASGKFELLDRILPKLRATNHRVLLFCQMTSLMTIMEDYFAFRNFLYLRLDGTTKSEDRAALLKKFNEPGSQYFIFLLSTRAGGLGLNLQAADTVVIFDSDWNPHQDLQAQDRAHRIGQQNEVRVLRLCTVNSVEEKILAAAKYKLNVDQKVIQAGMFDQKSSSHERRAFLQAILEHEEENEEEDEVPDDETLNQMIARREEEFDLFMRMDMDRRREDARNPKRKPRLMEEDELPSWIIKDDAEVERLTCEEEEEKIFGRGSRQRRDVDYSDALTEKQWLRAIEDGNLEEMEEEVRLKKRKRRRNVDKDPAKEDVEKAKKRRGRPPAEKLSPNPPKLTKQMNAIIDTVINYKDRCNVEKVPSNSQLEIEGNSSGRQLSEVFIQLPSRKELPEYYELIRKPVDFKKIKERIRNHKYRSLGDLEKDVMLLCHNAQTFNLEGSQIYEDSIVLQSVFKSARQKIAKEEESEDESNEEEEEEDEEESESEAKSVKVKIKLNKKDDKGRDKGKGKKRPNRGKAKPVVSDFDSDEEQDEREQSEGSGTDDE

For Cc1ncsc1-c1ccc([C@H](C)NC(=O)[C@@H]2C[C@@H](O)CN2C(=O)[C@@H](c2cc(N3CCC(F)(CN4CCC(O[C@H]5C[C@H](Oc6cc(N7C8CCC7CN(c7cc(-c9ccccc9O)nnc7N)C8)ccn6)C5)CC4)CC3)no2)C(C)C)cc1 [compound 683, (2S,4R)-1-((2R)-2-(3-(4-((4-((1r,3r)-3-((4-(3-(3-amino-6-(2-hydroxyphenyl)pyridazin-4-yl)-3,8-diazabicyclo[3.2.1]octan-8-yl)pyridin-2-yl)oxy)cyclobutoxy)piperidin-1-yl)methyl)-4-fluoropiperidin-1-yl)isoxazol-5-yl)-3-methylbutanoyl)-4-hydroxy-N-((S)-1-(4-(4-methylthiazol-5-yl)phenyl)ethyl)pyrrolidine-2-carboxamide], the DC50 was < 2.5 nM and the Dmax was > 75%.

With Cc1ncsc1-c1ccc([C@H](C)NC(=O)[C@@H]2C[C@@H](O)CN2C(=O)[C@H](c2cc(N3CCC(N4CCC(O[C@H]5C[C@H](Oc6cc(N7C8CCC7CN(c7cc(-c9ccccc9O)nnc7N)C8)ccn6)C5)CC4)CC3)no2)C(C)C)cc1 [compound 684, (2S,4R)-1-((2S)-2-(3-(4-((1r,3S)-3-((4-(3-(3-amino-6-(2-hydroxyphenyl)pyridazin-4-yl)-3,8-diazabicyclo[3.2.1]octan-8-yl)pyridin-2-yl)oxy)cyclobutoxy)-[1,4'-bipiperidin]-1'-yl)isoxazol-5-yl)-3-methylbutanoyl)-4-hydroxy-N-((S)-1-(4-(4-methylthiazol-5-yl)phenyl)ethyl)pyrrolidine-2-carboxamide] the DC50 was 10 to 30 nM and the Dmax was 50 to 75%.

For Cc1ncsc1-c1ccc([C@H](C)NC(=O)[C@@H]2C[C@@H](O)CN2C(=O)[C@@H](c2cc(N3CCC(N4CCC(O[C@H]5C[C@H](Oc6cc(N7C8CCC7CN(c7cc(-c9ccccc9O)nnc7N)C8)ccn6)C5)CC4)CC3)no2)C(C)C)cc1 [compound 685, (2S,4R)-1-((2R)-2-(3-(4-((1r,3R)-3-((4-(3-(3-amino-6-(2-hydroxyphenyl)pyridazin-4-yl)-3,8-diazabicyclo[3.2.1]octan-8-yl)pyridin-2-yl)oxy)cyclobutoxy)-[1,4'-bipiperidin]-1'-yl)isoxazol-5-yl)-3-methylbutanoyl)-4-hydroxy-N-((S)-1-(4-(4-methylthiazol-5-yl)phenyl)ethyl)pyrrolidine-2-carboxamide], the DC50 was < 2.5 nM and the Dmax was > 75%.

Cc1ncsc1-c1ccc([C@@H](CCCC(=O)O)NC(=O)[C@@H]2C[C@@H](O)CN2C(=O)C(c2cc(OCCN3CCC(O[C@H]4C[C@H](Oc5cc(N6C7CCC6CN(c6cc(-c8ccccc8O)nnc6N)C7)ccn5)C4)CC3)no2)C(C)C)cc1 (stereo partly drawn) [compound 686, (5R)-5-((2S,4R)-1-(2-(3-(2-(4-((1r,3r)-3-((4-(3-(3-amino-6-(2-hydroxyphenyl)pyridazin-4-yl)-3,8-diazabicyclo[3.2.1]octan-8-yl)pyridin-2-yl)oxy)cyclobutoxy)piperidin-1-yl)ethoxy)isoxazol-5-yl)-3-methylbutanoyl)-4-hydroxypyrrolidine-2-carboxamido)-5-(4-(4-methylthiazol-5-yl)phenyl)pentanoic acid] was tested, and the DC50 was > 30 nM.

For Cc1ncsc1-c1ccc([C@H](CCCC(=O)O)NC(=O)[C@@H]2C[C@@H](O)CN2C(=O)C(c2cc(OCCN3CCC(O[C@H]4C[C@H](Oc5cc(N6C7CCC6CN(c6cc(-c8ccccc8O)nnc6N)C7)ccn5)C4)CC3)no2)C(C)C)cc1 (stereo partly drawn) [compound 687, (5S)-5-((2S,4R)-1-(2-(3-(2-(4-((1r,3r)-3-((4-(3-(3-amino-6-(2-hydroxyphenyl)pyridazin-4-yl)-3,8-diazabicyclo[3.2.1]octan-8-yl)pyridin-2-yl)oxy)cyclobutoxy)piperidin-1-yl)ethoxy)isoxazol-5-yl)-3-methylbutanoyl)-4-hydroxypyrrolidine-2-carboxamido)-5-(4-(4-methylthiazol-5-yl)phenyl)pentanoic acid], the DC50 was > 30 nM.

For Cc1ncsc1-c1ccc([C@H](C)NC(=O)[C@@H]2C[C@@H](O)CN2C(=O)[C@H](c2cc(N3CCC4(CCN(CC5CCN(C[C@H]6C[C@H](Oc7cc(N8C9CCC8CN(c8cc(-c%10ccccc%10O)nnc8N)C9)ccn7)C6)CC5)CC4)CC3)no2)C(C)C)cc1 [compound 688, (2S,4R)-1-((2S)-2-(3-(9-((1-(((1r,3r)-3-((4-(3-(3-amino-6-(2-hydroxyphenyl)pyridazin-4-yl)-3,8-diazabicyclo[3.2.1]octan-8-yl)pyridin-2-yl)oxy)cyclobutyl)methyl)piperidin-4-yl)methyl)-3,9-diazaspiro[5.5]undecan-3-yl)isoxazol-5-yl)-3-methylbutanoyl)-4-hydroxy-N-((S)-1-(4-(4-methylthiazol-5-yl)phenyl)ethyl)pyrrolidine-2-carboxamide], the DC50 was > 30 nM.

In the case of Cc1ncsc1-c1ccc([C@H](C)NC(=O)[C@@H]2C[C@@H](O)CN2C(=O)[C@@H](c2cc(N3CCC4(CCN(CC5CCN(C[C@H]6C[C@H](Oc7cc(N8C9CCC8CN(c8cc(-c%10ccccc%10O)nnc8N)C9)ccn7)C6)CC5)CC4)CC3)no2)C(C)C)cc1 [compound 689, (2S,4R)-1-((2R)-2-(3-(9-((1-(((1r,3r)-3-((4-(3-(3-amino-6-(2-hydroxyphenyl)pyridazin-4-yl)-3,8-diazabicyclo[3.2.1]octan-8-yl)pyridin-2-yl)oxy)cyclobutyl)methyl)piperidin-4-yl)methyl)-3,9-diazaspiro[5.5]undecan-3-yl)isoxazol-5-yl)-3-methylbutanoyl)-4-hydroxy-N-((S)-1-(4-(4-methylthiazol-5-yl)phenyl)ethyl)pyrrolidine-2-carboxamide], the DC50 is reported as < 2.5 nM and the Dmax is reported as > 75%.

Cc1ncsc1-c1ccc([C@H](C)NC(=O)[C@@H]2C[C@@H](O)CN2C(=O)[C@@H](c2cc(N3CCC(CN4CCC(O[C@H]5C[C@H](Oc6cc(N7C8CCC7CN(c7cc(-c9ccccc9O)nnc7N)C8)ccn6)C5)CC4)CC3)no2)C(C)C)c(O)c1 [compound 690, (2S,4R)-1-((2R)-2-(3-(4-((4-((1r,3r)-3-((4-(3-(3-amino-6-(2-hydroxyphenyl)pyridazin-4-yl)-3,8-diazabicyclo[3.2.1]octan-8-yl)pyridin-2-yl)oxy)cyclobutoxy)piperidin-1-yl)methyl)piperidin-1-yl)isoxazol-5-yl)-3-methylbutanoyl)-4-hydroxy-N-((S)-1-(2-hydroxy-4-(4-methylthiazol-5-yl)phenyl)ethyl)pyrrolidine-2-carboxamide] was tested, and the DC50 was < 2.5 nM and the Dmax was > 75%.

In the case of Cc1ncsc1-c1ccc([C@H](C)NC(=O)[C@@H]2C[C@@H](O)CN2C(=O)[C@@H](c2cc(N3CCC(CN4CCC(OC5CC(Oc6cc(N7C8CC[C@@H]7CN(c7cc(-c9ccccc9O)nnc7N)C8)ccn6)C5)CC4)CC3)no2)C(C)C)cc1O (stereo partly drawn) [compound 691, (2S,4R)-1-((2R)-2-(3-(4-((4-((1r,3r)-3-((4-(3-(3-amino-6-(2-hydroxyphenyl)pyridazin-4-yl)-3,8-diazabicyclo[3.2.1]octan-8-yl)pyridin-2-yl)oxy)cyclobutoxy)piperidin-1-yl)methyl)piperidin-1-yl)isoxazol-5-yl)-3-methylbutanoyl)-4-hydroxy-N-((S)-1-(3-hydroxy-4-(4-methylthiazol-5-yl)phenyl)ethyl)pyrrolidine-2-carboxamide], the “Dmax (% degraded)” value is reported as “A (A > 75)” and the DC50 is reported as < 2.5 nM.
